# Reference: US10112937B2, “P2X7 modulators and methods of use” (Janssen Pharmaceutica NV, priority 2013, dated 2018)
# Biological target: human P2X7 (Homo sapiens (Human), UniProt Q99572)
# Assay: P2X7 antagonism in human PBMCs (IL-1β release after LPS + Bz-ATP, ELISA)
# Assay type: cell-based
# Conditions: 10 μM test compound, human PBMCs, LPS + Bz-ATP
# Sequence of human P2X7 (Q99572 whole entry): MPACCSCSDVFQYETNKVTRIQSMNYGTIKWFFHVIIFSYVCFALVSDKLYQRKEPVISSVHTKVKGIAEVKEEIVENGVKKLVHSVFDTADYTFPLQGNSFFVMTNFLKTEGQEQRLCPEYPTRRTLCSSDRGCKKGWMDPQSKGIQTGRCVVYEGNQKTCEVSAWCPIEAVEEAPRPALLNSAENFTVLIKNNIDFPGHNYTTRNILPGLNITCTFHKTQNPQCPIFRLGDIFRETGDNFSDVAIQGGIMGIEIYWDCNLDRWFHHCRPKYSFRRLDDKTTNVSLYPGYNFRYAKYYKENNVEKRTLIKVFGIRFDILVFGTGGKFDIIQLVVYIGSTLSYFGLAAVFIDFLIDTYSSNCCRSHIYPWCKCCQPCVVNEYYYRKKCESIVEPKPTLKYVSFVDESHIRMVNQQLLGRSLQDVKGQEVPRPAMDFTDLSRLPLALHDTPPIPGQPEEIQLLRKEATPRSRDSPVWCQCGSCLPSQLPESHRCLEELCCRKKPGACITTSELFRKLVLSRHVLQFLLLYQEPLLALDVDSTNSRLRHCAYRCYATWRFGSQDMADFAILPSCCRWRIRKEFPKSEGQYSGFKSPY
row,SMILES,PBMC 10 μM (% control)
1,"CCn1nccc1-n1nnc2c1C[C@H](C)N(C(=O)c1cccc(C(F)(F)F)c1Cl)C2 [Example 406, (S)-(2-chloro-3-(trifluoromethyl)phenyl)(1-(1-ethyl-1H-pyrazol-5-yl)-6-methyl-6,7-dihydro-1H-[1,2,3]triazolo[4,5-c]pyridin-5(4H)-yl)methanone]",−3.6 % control

# Same assay, conditions: human PBMCs, test compound 1 μM
row,SMILES,PBMC 1 μM (% control)
1,"Cn1nc2c(c1-c1ccccn1)CCN(C(=O)c1cccc(C(F)(F)F)c1Cl)C2 [Example 92, 6-{[2-Chloro-3-(trifluoromethyl)phenyl]carbonyl}-2-methyl-3-pyridin-2-yl-4,5,6,7-tetrahydro-2H-pyrazolo[3,4-c]pyridine]",2.7 % control
2,"Cn1nc(-c2ccccc2)c2c1CN(C(=O)c1cccc(Cl)c1Cl)CC2.Cn1nc2c(c1-c1ccccc1)CCN(C(=O)c1cccc(Cl)c1Cl)C2 [Example 101, 6-[(2,3-Dichlorophenyl)carbonyl]-1-methyl-3-phenyl-4,5,6,7-tetrahydro-1H-pyrazolo[3,4-c]pyridine-6-[(2,3-dichlorophenyl)carbonyl]-2-methyl-3-phenyl-4,5,6,7-tetrahydro-2H-pyrazolo[3,4-c]pyridine (1:1)]",7.6 % control
3,"O=C(c1cccc(C(F)(F)F)c1Cl)N1CCc2c(nnn2-c2cnccn2)C1 [Example 91, 5-{[2-Chloro-3-(trifluoromethyl)phenyl]carbonyl}-1-pyrazin-2-yl-4,5,6,7-tetrahydro-1H-[1,2,3]triazolo[4,5-c]pyridine]",6.1 % control
4,"O=C(c1cccc2c1OC(F)(F)O2)N1CCc2c(ncn2-c2ccccc2)C1 [Example 50, 5-[(2,2-Difluoro-1,3-benzodioxol-4-yl)carbonyl]-1-phenyl-4,5,6,7-tetrahydro-1H-imidazo[4,5-c]pyridine]",96.0 % control
5,"Cn1nc(-c2cccnc2)c2c1CN(C(=O)c1cccc(C(F)(F)F)c1Cl)CC2 [Example 108, 6-{[2-Chloro-3-(trifluoromethyl)phenyl]carbonyl}-1-methyl-3-pyridin-3-yl-4,5,6,7-tetrahydro-1H-pyrazolo[3,4-c]pyridine]",1.1 % control
6,"CC1c2nnn(-c3cnccn3)c2C=CN1C(=O)c1cccc(C(F)(F)F)c1Cl (centres unmarked) [Example 72, 5-{[2-Chloro-3-(trifluoromethyl)phenyl]carbonyl}-4-methyl-1-pyrazin-2-yl-4,5-dihydro-1H-[1,2,3]triazolo[4,5-c]pyridine]",−5.7 % control
7,"O=C(c1cccc(C(F)(F)F)c1Cl)N1C=Cc2c(nnn2-c2cnccn2)C1c1ccccc1 (centres unmarked) [Example 76, 5-{[2-Chloro-3-(trifluoromethyl)phenyl]carbonyl}-4-phenyl-1-pyrazin-2-yl-4,5-dihydro-1H-[1,2,3]triazolo[4,5-c]pyridine]",1.6 % control
8,"CC1c2nnn(-c3cnccn3)c2CCN1C(=O)c1cccc(C(F)(F)F)c1Cl (centres unmarked) [Example 73, 5-{[2-Chloro-3-(trifluoromethyl)phenyl]carbonyl}-4-methyl-1-pyrazin-2-yl-4,5,6,7-tetrahydro-1H-[1,2,3]triazolo[4,5-c]pyridine]",4.3 % control

# Same assay, conditions: human PBMCs, test compound 10 μM
row,SMILES,PBMC 10 μM (% control)
1,"CC1c2nnn(-c3ccc(F)cc3)c2CCN1C(=O)c1cccc(C(F)(F)F)c1Cl (centres unmarked) [Example 83, 5-{[2-Chloro-3-(trifluoromethyl)phenyl]carbonyl}-1-(4-fluorophenyl)-4-methyl-4,5,6,7-tetrahydro-1H-[1,2,3]triazolo[4,5-c]pyridine]",4.5 % control
2,"O=C(c1cccc(C(F)(F)F)c1Cl)N1CCc2c(nnn2-c2cccc(F)n2)C1 [Example 135, (2-Chloro-3-(trifluoromethyl)phenyl)(1-(6-fluoropyridin-2-yl)-6,7-dihydro-1H-[1,2,3]triazolo[4,5-c]pyridin-5(4H)-yl)methanone]",1.7 % control
3,"C[C@@H]1Cc2c(nnn2-c2ncccc2F)CN1C(=O)c1cccc(C(F)(F)F)c1Cl (single isomer, unassigned) [Example 167, (6R*)-5-{[2-Chloro-3-(trifluoromethyl)phenyl]carbonyl}-1-(3-fluoropyridin-2-yl)-6-methyl-4,5,6,7-tetrahydro-1H-[1,2,3]triazolo[4,5-c]pyridine]",4.2 % control
4,"Cc1nc2c(n1-c1ccccc1)CCN(C(=O)c1cccc(Cl)c1Cl)C2 [Example 331, (2,3-dichlorophenyl)(2-methyl-1-phenyl-6,7-dihydro-1H-imidazo[4,5-c]pyridin-5(4H)-yl)methanone]",−11.0 % control
5,"Cc1cc(-n2nnc3c2CCN(C(=O)c2cc(C(F)(F)F)ccc2Cl)[C@@H]3C)ncc1F (single isomer, unassigned) [Example 353, (R*)-(2-chloro-5-(trifluoromethyl)phenyl)(1-(5-fluoro-4-methylpyridin-2-yl)-4-methyl-6,7-dihydro-1H-[1,2,3]triazolo[4,5-c]pyridin-5(4H)-yl)methanone]",107.5 % control
6,"CC1c2nnn(-c3ncccc3F)c2CCN1C(=O)c1cccc(C(F)(F)F)c1Cl (centres unmarked) [Example 84, 5-{[2-Chloro-3-(trifluoromethyl)phenyl]carbonyl}-1-(3-fluoropyridin-2-yl)-4-methyl-4,5,6,7-tetrahydro-1H-[1,2,3]triazolo[4,5-c]pyridine]",8.5 % control
7,"Cc1nccc(-n2nnc3c2CCN(C(=O)c2ccnc(C(F)(F)F)c2F)C3C)n1 (centres unmarked) [Example 401, (3-fluoro-2-(trifluoromethyl)pyridin-4-yl)(4-methyl-1-(2-methylpyrimidin-4-yl)-6,7-dihydro-1H-[1,2,3]triazolo[4,5-c]pyridin-5(4H)-yl)methanone]",82.0 % control
8,"CC1Cc2c(nnn2-c2ccn[nH]2)CN1C(=O)c1cccc(C(F)(F)F)c1F (centres unmarked) [Example 189, (2-fluoro-3-(trifluoromethyl)phenyl)(6-methyl-1-(1H-pyrazol-3-yl)-6,7-dihydro-1H-[1,2,3]triazolo[4,5-c]pyridin-5(4H)-yl)methanone]",0.5 % control
9,"Cc1c(C(=O)N2Cc3nnn(-c4ncc(F)cn4)c3C[C@H]2C)cccc1C(F)(F)F (single isomer, unassigned) [Example 207, (6R*)-1-(5-Fluoropyrimidin-2-yl)-6-methyl-5-{[2-methyl-3-(trifluoromethyl)phenyl]carbonyl}-4,5,6,7-tetrahydro-1H-[1,2,3]triazolo[4,5-c]pyridine]",45.0 % control
10,"CC1c2nnn(-c3cnccn3)c2CCN1C(=O)c1ccc(Cl)cc1F (centres unmarked) [Example 274, (4-chloro-2-fluorophenyl)(4-methyl-1-(pyrazin-2-yl)-6,7-dihydro-1H-[1,2,3]triazolo[4,5-c]pyridin-5(4H)-yl)methanone]",−4.8 % control
11,"Cc1ccnc(-n2nnc3c2CCN(C(=O)c2cccc(C(F)(F)F)c2Cl)C3C)c1 (centres unmarked) [Example 299, (2-chloro-3-(trifluoromethyl)phenyl)(4-methyl-1-(4-methylpyridin-2-yl)-6,7-dihydro-1H-[1,2,3]triazolo[4,5-c]pyridin-5(4H)-yl)methanone]",1.5 % control
12,"C[C@H]1Cc2c(nnn2-c2cc(F)ccn2)CN1C(=O)c1cccc(C(F)(F)F)c1Cl (single isomer, unassigned) [Example 199, (6S*)-5-{[2-Chloro-3-(trifluoromethyl)phenyl]carbonyl}-1-(4-fluoropyridin-2-yl)-6-methyl-4,5,6,7-tetrahydro-1H-[1,2,3]triazolo[4,5-c]pyridine]",0.0 % control
13,"CC1c2nnn(-c3ncccc3F)c2C=CN1C(=O)c1cccc(C(F)(F)F)c1Cl (centres unmarked) [Example 82, 5-{[2-Chloro-3-(trifluoromethyl)phenyl]carbonyl}-1-(3-fluoropyridin-2-yl)-4-methyl-4,5-dihydro-1H-[1,2,3]triazolo[4,5-c]pyridine]",7.9 % control
14,"Cc1c(C(=O)N2Cc3nnn(-c4ncc(F)cn4)c3C[C@H]2C)ccnc1C(F)(F)F (single isomer, unassigned) [Example 187, (S*)-(1-(5-fluoropyrimidin-2-yl)-6-methyl-6,7-dihydro-1H-[1,2,3]triazolo[4,5-c]pyridin-5(4H)-yl)(3-methyl-2-(trifluoromethyl)pyridin-4-yl)methanone]",−0.6 % control
15,"Cc1c(C(=O)N2CCc3c(nnn3-c3ccccn3)C2)ccc(F)c1F [Example 132, (3,4-Difluoro-2-methylphenyl)(1-(pyridin-2-yl)-6,7-dihydro-1H-[1,2,3]triazolo-[4,5-c]pyridin-5(4H)-yl)methanone]",3.8 % control
16,"Cc1cc(-n2nnc3c2CCN(C(=O)c2ccc(Cl)c(C(F)(F)F)c2)[C@H]3C)ncc1F (single isomer, unassigned) [Example 366, (S*)-(4-chloro-3-(trifluoromethyl)phenyl)(1-(5-fluoro-4-methylpyridin-2-yl)-4-methyl-6,7-dihydro-1H-[1,2,3]triazolo[4,5-c]pyridin-5(4H)-yl)methanone]",2.0 % control
17,"C[C@H]1Cc2c(nnn2-c2cc(F)ccn2)CN1C(=O)c1cccc(Cl)c1Cl (single isomer, unassigned) [Example 196, (6S*)-5-[(2,3-Dichlorophenyl)carbonyl]-1-(4-fluoropyridin-2-yl)-6-methyl-4,5,6,7-tetrahydro-1H-[1,2,3]triazolo[4,5-c]pyridine]",−3.1 % control
18,"C[C@@H]1Cc2c(nnn2-c2ccn[nH]2)CN1C(=O)c1cccc(C(F)(F)F)c1F (single isomer, unassigned) [Example 348, (R*)-(2-fluoro-3-(trifluoromethyl)phenyl)(6-methyl-1-(1H-pyrazol-5-yl)-6,7-dihydro-1H-[1,2,3]triazolo[4,5-c]pyridin-5(4H)-yl)methanone]",77.7 % control

# Same assay, conditions: test compound 1 μM, LPS 30 ng/ml + 0.5 mM Bz-ATP
row,SMILES,PBMC 1 μM (% control)
1,"Cn1nc(-c2ccccc2)c2c1CN(C(=O)c1cccc(Cl)c1Cl)CC2.Cn1nc2c(c1-c1ccccc1)CCN(C(=O)c1cccc(Cl)c1Cl)C2 [Example 101, 6-[(2,3-Dichlorophenyl)carbonyl]-1-methyl-3-phenyl-4,5,6,7-tetrahydro-1H-pyrazolo[3,4-c]pyridine-6-[(2,3-dichlorophenyl)carbonyl]-2-methyl-3-phenyl-4,5,6,7-tetrahydro-2H-pyrazolo[3,4-c]pyridine (1:1)]",7.6 % control

# Same assay, conditions: test compound 10 μM, LPS 30 ng/ml + 0.5 mM Bz-ATP
row,SMILES,PBMC 10 μM (% control)
1,"Cc1c(C(=O)N2Cc3nnn(-c4ncc(F)cn4)c3C[C@H]2C)ccnc1C(F)(F)F (single isomer, unassigned) [Example 187, (S*)-(1-(5-fluoropyrimidin-2-yl)-6-methyl-6,7-dihydro-1H-[1,2,3]triazolo[4,5-c]pyridin-5(4H)-yl)(3-methyl-2-(trifluoromethyl)pyridin-4-yl)methanone]",−0.6 % control
